In US10815238B2, “Antimicrobial compounds and methods of making and using the same” (BIOVERSYS AG, priority 2013, dated 2020):

Tested on: Eschericia coli (E. coli) strain ATCC25922
Experiment: Standard microdilution assay, MIC against E. coli ATCC25922
Assay type: cell-based
Details: Escherichia coli; E. coli strain ATCC25922, standard microdilution assay; cutoff 16 micrograms/mL; read-out: MIC E. Coli
Method: The in vitro activity of the compounds of the present invention can be determined. Antimicrobial testing is typically performed to determine the minimum inhibitory concentration (MIC). Minimum inhibitory concentrations (MICs) are determined by the microdilution method in a final volume of 100 μl according to protocols outlined by The Clinical and Laboratory Standards Institute (CLSI). Performance standards for reference strains are assessed within the same experimental design to maintain quality control. See, for example, Clinical Laboratory Standards Institute: Methods for dilution antimicrobial susceptibility tests for bacteria that grow aerobically M7-A8. Approved Standard-Eighth Edition. Wayne, Pa.: CLSI; December 2008; and Clinical Laboratory Standards Institute: Performance Standards for Antimicrobial Susceptibility Testing M100-S20; Approved Standard-Twentieth Edition. Wayne, Pa.: CLSI; June 2010.
The compounds of the present invention were tested for antimicrobial activity. The Compounds 1-582 were run against Eschericia coli (E. coli) strain ATCC25922 and Compounds 320-582 were run against Staphylococcus aureus (S. aureus) 11540 strain using a standard microdilution assay to determine minimum inhibitory concentrations (MICs). […] It will be recognized by one skilled in the art that the compounds can be assessed against other bacterial organisms and that the presentation of data for activity against Eschericia coli and Staphylococcus aureus are illustrative and in no way is intended to limit the scope of the present invention. The compounds of the present invention can be assayed against a range of other microorganisms depending upon the performance activity desired to be gathered. Furthermore, the “+” and “−” representation and the selection of a cutoff value of 16 micrograms/mL is also illustrative and in no way is intended to limit the scope of the present invention.

MIC [µg/mL] | Structure (SMILES)
< 16 | C[C@H](N)CCCc1cc(Cl)c(F)c(-c2cc3cn(-c4ccc([C@@H](NCCCNC(=N)N)C5CC5)cc4)c(=O)nc3[nH]2)c1 [Compound 102]
< 16 | C[C@H](N)CCCc1cc(Cl)c(F)c(-c2cc3cn(-c4ccc([C@H](CO)NCCCNC(=N)N)cc4)c(=O)nc3[nH]2)c1 [Compound 103]
< 16 | C[C@H](N)CCCc1cc(SC(F)(F)F)cc(-c2cc3cn(-c4ccc([C@H](CO)NCCCNC(=N)N)cc4)c(=O)nc3[nH]2)c1 [Compound 104]
< 16 | C[C@H](N)CCCc1cc(Cl)c(F)c(-c2cc3cn(-c4ccc([C@H](CC5=CCCN(C)C5)NCCCNC(=N)N)cc4)c(=O)nc3[nH]2)c1 [Compound 105]
< 16 | C[C@H](N)CCCc1cc(SC(F)(F)F)cc(-c2cc3cn(-c4ccc(C(NCCCNC(=N)N)c5nnn[nH]5)cc4)c(=O)nc3[nH]2)c1 (stereo partly drawn) [Compound 106]
< 16 | C[C@H](N)CCCc1cc(Cl)c(F)c(-c2cc3cn(-c4ccc([C@H](C)NCCCN)cc4)c(=O)nc3[nH]2)c1 [Compound 107]
< 16 | C[C@H](N)CCCc1cc(-c2cc3cn(-c4ccc([C@H](CO)NCCCNC(=N)N)cc4)c(=O)nc3[nH]2)cc(C(F)(F)F)c1 [Compound 108]
> 16 | O=c1nc2[nH]ccc2cn1-c1ccc(CNCc2cccnc2)cc1 [Compound 109]
< 16 | C[C@H](NCCCNC(=N)N)c1ccc(-n2cc3cc(-c4cc(SC(F)(F)F)cc([C@H](O)CC[C@@H](N)CO)c4)[nH]c3nc2=O)cc1 [Compound 110]
< 16 | C[C@H](NCCCNC(=N)N)c1ccc(-n2cc3cc(-c4cc(SC(F)(F)F)cc([C@H](O)CC[C@H](N)CO)c4)[nH]c3nc2=O)cc1 [Compound 111]
> 16 | C[C@H](N)CCCc1cc(Cl)c(F)c(-c2cc3cn(-c4ccc(CNCc5cccnc5)cc4)c(=O)nc3[nH]2)c1 [Compound 112]
> 16 | C[C@H](N)CCCc1cc(SC(F)(F)F)cc(-c2cc3cn(-c4ccc(CNCc5cccnc5)cc4)c(=O)nc3[nH]2)c1 [Compound 113]
> 16 | O=C(O)CNCc1ccc(-n2cc3cc[nH]c3nc2=O)cc1 [Compound 114]
> 16 | C[C@H](N)CCCc1cc(Cl)c(F)c(-c2cc3cn(-c4ccc(CNCC(=O)O)cc4)c(=O)nc3[nH]2)c1 [Compound 115]
> 16 | C[C@H](N)CCCc1cc(SC(F)(F)F)cc(-c2cc3cn(-c4ccc(CNCC(=O)O)cc4)c(=O)nc3[nH]2)c1 [Compound 116]
< 16 | C[C@H](NCCCNC(=N)N)c1ccc(-n2cc3cc(-c4cc(CCC[C@@H](N)CF)cc(SC(F)(F)F)c4)[nH]c3nc2=O)cc1 [Compound 117]
< 16 | C[C@H](N)CCCc1cc(Cl)c(F)c(-c2cc3cn(-c4ccc([C@@H](N)CCCCNC(=N)N)cc4)c(=O)nc3[nH]2)c1 [Compound 118]
> 16 | C[C@H](N)CCCc1cc(Cl)c(F)c(-c2cc3cn(-c4ccc(CNCc5c[nH]nn5)cc4)c(=O)nc3[nH]2)c1 [Compound 119]
> 16 | COc1ccc(Cn2cc(CNCc3ccc(-n4cc5cc(-c6cc(CCC[C@H](C)N)cc(Cl)c6F)[nH]c5nc4=O)cc3)nn2)cc1 [Compound 120]

MIC [µg/mL] | Structure (SMILES)
> 16 | C[C@H](N)CCCc1cc(SC(F)(F)F)cc(-c2cc3cn(-c4ccc(CNCc5c[nH]nn5)cc4)c(=O)nc3[nH]2)c1 [Compound 121]
> 16 | COc1ccc(Cn2cc(CNCc3ccc(-n4cc5cc(-c6cc(CCC[C@H](C)N)cc(SC(F)(F)F)c6)[nH]c5nc4=O)cc3)nn2)cc1 [Compound 122]
< 16 | CNCCNCc1ccc(-n2cc3cc(-c4cc(CCC[C@H](C)N)cc(Cl)c4F)[nH]c3nc2=O)cc1 [Compound 123]
> 16 | CNCCNCc1ccc(-n2cc3cc(-c4cc(CCC[C@H](C)N)cc(SC(F)(F)F)c4)[nH]c3nc2=O)cc1 [Compound 124]
> 16 | CNCCNCc1ccc(-n2cc(-c3cc4cn(-c5ccc(CNCCNC)cc5)c(=O)nc4[nH]3)c(N)nc2=O)cc1 [Compound 125]
> 16 | O=c1nc2[nH]ccc2cn1-c1ccc(CNCc2ccncc2)cc1 [Compound 126]
> 16 | C[C@H](N)CCCc1cc(Cl)c(F)c(-c2cc3cn(-c4ccc(CNCc5ccncc5)cc4)c(=O)nc3[nH]2)c1 [Compound 127]
> 16 | C[C@H](N)CCCc1cc(SC(F)(F)F)cc(-c2cc3cn(-c4ccc(CNCc5ccncc5)cc4)c(=O)nc3[nH]2)c1 [Compound 128]
> 16 | O=c1nc2[nH]ccc2cn1-c1ccc(CNCc2c[nH]nn2)cc1 [Compound 129]
< 16 | COC[C@H](N)CCCc1cc(SC(F)(F)F)cc(-c2cc3cn(-c4ccc([C@H](C)NCCCNC(=N)N)cc4)c(=O)nc3[nH]2)c1 [Compound 130]
> 16 | COc1ccc(Cn2cc(CNCc3ccc(-n4cc5cc[nH]c5nc4=O)cc3)nn2)cc1 [Compound 131]
< 16 | C[C@H](NCCCNC(=N)N)c1ccc(-n2cc3cc(-c4cc(SC(F)(F)F)cc([C@H](O)CC[C@H](N)CCO)c4)[nH]c3nc2=O)cc1 [Compound 132]
< 16 | C[C@H](NCCCNC(=N)N)c1ccc(-n2cc3cc(-c4cc(SC(F)(F)F)cc([C@H](O)CC[C@@H](N)CCO)c4)[nH]c3nc2=O)cc1 [Compound 133]
< 16 | C[C@H](NCCCNC(=N)N)c1ccc(-n2cc3cc(-c4cc(SC(F)(F)F)cc([C@H](O)CCC(N)C(O)CO)c4)[nH]c3nc2=O)cc1 (stereo partly drawn) [Compound 134]
< 16 | C[C@H](NCCCNC(=N)N)c1ccc(-n2cc3cc(-c4cc(CCC[C@@H](N)CF)cc(Cl)c4F)[nH]c3nc2=O)cc1 [Compound 135]
> 16 | C[C@H](N)CCCc1cc(Cl)c(F)c(-c2cc3cn(-c4ccc(CN)cc4)c(=O)nc3[nH]2)c1 [Compound 136]
> 16 | C[C@H](N)CCCc1cc(SC(F)(F)F)cc(-c2cc3cn(-c4ccc(CN)cc4)c(=O)nc3[nH]2)c1 [Compound 137]
> 16 | O=C(O)CCNCc1ccc(-n2cc3cc[nH]c3nc2=O)cc1 [Compound 138]
> 16 | C[C@H](N)CCCc1cc(Cl)c(F)c(-c2cc3cn(-c4ccc(CNCCC(=O)O)cc4)c(=O)nc3[nH]2)c1 [Compound 139]

MIC [µg/mL] | Structure (SMILES)
> 16 | C[C@H](N)CCCc1cc(SC(F)(F)F)cc(-c2cc3cn(-c4ccc(CNCCC(=O)O)cc4)c(=O)nc3[nH]2)c1 [Compound 140]
> 16 | COC(=O)CCNCc1ccc(-n2cc3cc(-c4cc(CCC[C@H](C)N)cc(SC(F)(F)F)c4)[nH]c3nc2=O)cc1 [Compound 141]
> 16 | CNCCNCc1ccc(-n2cc3cc[nH]c3nc2=O)cc1 [Compound 142]
< 16 | C=C[C@H](N)CCNCc1ccc(-n2cc3cc(-c4cc(CCC[C@H](C)N)cc(Cl)c4F)[nH]c3nc2=O)cc1 [Compound 143]
> 16 | COc1ccc(CNCc2ccc(-n3cc4cc[nH]c4nc3=O)cc2)cn1 [Compound 144]
> 16 | COc1ccc(CNCc2ccc(-n3cc4cc(-c5cc(CCC[C@H](C)N)cc(Cl)c5F)[nH]c4nc3=O)cc2)cn1 [Compound 145]
> 16 | COc1ccc(CNCc2ccc(-n3cc4cc(-c5cc(CCC[C@H](C)N)cc(SC(F)(F)F)c5)[nH]c4nc3=O)cc2)cn1 [Compound 146]
> 16 | C[C@H](N)CCCc1cc(SC(F)(F)F)cc(-c2cc3cn(-c4ccc(CNCc5ccc(=O)[nH]c5)cc4)c(=O)nc3[nH]2)c1 [Compound 147]
< 16 | C[C@H](N)CCCc1cc(Cl)c(F)c(-c2cc3cn(-c4ccc(CNCC[C@@H](N)C5CC5)cc4)c(=O)nc3[nH]2)c1 [Compound 148]
> 16 | C[C@H](N)CCCc1cc(Cl)c(F)c(-c2cc3cn(-c4ccc(CNCc5ccc(=O)[nH]c5)cc4)c(=O)nc3[nH]2)c1 [Compound 149]
< 16 | C[C@H](N)CCCc1cc(Cl)c(F)c(-c2cc3cn(-c4ccc([C@H](CF)NCCCNC(=N)N)cc4)c(=O)nc3[nH]2)c1 [Compound 150]
< 16 | CC[C@H](N)CCNCc1ccc(-n2cc3cc(-c4cc(CCC[C@H](C)N)cc(Cl)c4F)[nH]c3nc2=O)cc1 [Compound 152]
> 16 | C[C@H](N)CCCc1cc(Cl)c(F)c(-c2cc3cn(-c4ccc([C@@H](N)CCNc5nccs5)cc4)c(=O)nc3[nH]2)c1 [Compound 153]
< 16 | CC(C)[C@H](N)CCNCc1ccc(-n2cc3cc(-c4cc(CCC[C@H](C)N)cc(Cl)c4F)[nH]c3nc2=O)cc1 [Compound 155]
< 16 | CC(C)[C@@H](N)CCNCc1ccc(-n2cc3cc(-c4cc(CCC[C@H](C)N)cc(Cl)c4F)[nH]c3nc2=O)cc1 [Compound 156]
> 16 | C[C@H](N)CCCc1cc(SC(F)(F)F)cc(-c2cc3cn(-c4ccc([C@@H](N)CCNc5nccs5)cc4)c(=O)nc3[nH]2)c1 [Compound 157]
> 16 | C[C@H](N)CCCc1cc(Cl)c(F)c(-c2cc3cn(-c4ccc(CNCc5cnc(N)s5)cc4)c(=O)nc3[nH]2)c1 [Compound 158]
> 16 | C[C@H](N)CCCc1cc(SC(F)(F)F)cc(-c2cc3cn(-c4ccc(CNCc5cnc(N)s5)cc4)c(=O)nc3[nH]2)c1 [Compound 159]
< 16 | CC(N)CCNCc1ccc(-n2cc3cc(-c4cc(CCC[C@H](C)N)cc(Cl)c4F)[nH]c3nc2=O)cc1 (stereo partly drawn) [Compound 160]
